Where a SMILES comes first, the peptide text is derived from it.
Each molecule was assayed against HLA A*3001 (Homo sapiens, UniProt P04439, D140H/D185E/E176W/F33S/G80R/H175R/K168Q/R138E/R41S) (assay: biochemical).
Type: binding

Chain of HLA A*3001 (P04439 25-365 limits assumed, stated change not applied): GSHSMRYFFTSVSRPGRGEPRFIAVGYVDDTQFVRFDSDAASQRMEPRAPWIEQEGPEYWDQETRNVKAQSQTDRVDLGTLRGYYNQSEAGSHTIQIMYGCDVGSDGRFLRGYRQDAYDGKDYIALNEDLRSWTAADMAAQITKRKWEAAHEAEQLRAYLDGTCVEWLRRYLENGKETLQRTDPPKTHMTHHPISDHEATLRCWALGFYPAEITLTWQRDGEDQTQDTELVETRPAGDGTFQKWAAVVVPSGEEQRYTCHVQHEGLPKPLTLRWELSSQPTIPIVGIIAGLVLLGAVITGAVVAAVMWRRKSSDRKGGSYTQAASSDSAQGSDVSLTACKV

SMILES | IC50
CC[C@H](C)[C@H](NC(=O)[C@H](CC(N)=O)NC(=O)[C@H](CCCNC(=N)N)NC(=O)[C@@H](NC(=O)[C@H](CCCNC(=N)N)NC(=O)[C@H](CO)NC(=O)CN)C(C)C)C(=O)N[C@H](C(=O)N[C@@H](C)C(=O)O)[C@@H](C)CC [3102.0112] (H-GSRVRNIIA-OH) | 8.9 nM
NCCCC[C@H](NC(=O)[C@H](CS)NC(=O)[C@@H]1CCCN1C(=O)[C@H](CC(N)=O)NC(=O)[C@H](CCC(=O)O)NC(=O)[C@H](Cc1ccc(O)cc1)NC(=O)[C@H](CCCCN)NC(=O)[C@H](Cc1c[nH]c2ccccc12)NC(=O)[C@@H](N)CCCCN)C(=O)O [3102.0113] (H-KWKYENPCK-OH) | 15 nM
CC(C)[C@H](NC(=O)[C@H](CO)NC(=O)[C@H](C)NC(=O)[C@H](Cc1c[nH]cn1)NC(=O)[C@H](CC(N)=O)NC(=O)[C@H](Cc1ccccc1)NC(=O)[C@H](C)NC(=O)[C@@H](N)CCCCN)C(=O)N[C@@H](CCCCN)C(=O)O [3102.0118] (H-KAFNHASVK-OH) | 35 nM
CSCC[C@H](NC(=O)[C@H](CCCNC(=N)N)NC(=O)CNC(=O)[C@H](CO)NC(=O)[C@H](CO)NC(=O)[C@@H](NC(=O)[C@@H](N)CCCCN)[C@@H](C)O)C(=O)N1CCC[C@H]1C(=O)N[C@H](C(=O)O)C(C)C [3102.0119] (H-KTSSGRMPV-OH) | 2 nM
C[C@H](NC(=O)[C@H](Cc1ccc(O)cc1)NC(=O)[C@H](CCCNC(=N)N)NC(=O)[C@H](Cc1ccc(O)cc1)NC(=O)[C@@H](NC(=O)[C@@H](N)CCCCN)[C@@H](C)O)C(=O)N[C@@H](Cc1ccccc1)C(=O)N[C@@H](CO)C(=O)N[C@@H](CCCCN)C(=O)O [3102.0120] (H-KTYRYAFSK-OH) | 22 nM
CSCC[C@H](NC(=O)[C@@H](N)CCCCN)C(=O)N[C@@H](CCCNC(=N)N)C(=O)N[C@@H](CC(=O)O)C(=O)N[C@H](C(=O)N[C@@H](CC(C)C)C(=O)N1CCC[C@H]1C(=O)N[C@@H](C)C(=O)N[C@@H](CCCCN)C(=O)O)[C@@H](C)O [3102.0121] (H-KMRDTLPAK-OH) | 1.6 nM
CC[C@H](C)[C@H](NC(=O)[C@H](Cc1ccc(O)cc1)NC(=O)[C@@H](NC(=O)[C@@H](N)CCCCN)C(C)C)C(=O)N[C@@H](CC(N)=O)C(=O)N[C@@H](Cc1c[nH]cn1)C(=O)N1CCC[C@H]1C(=O)N[C@@H](Cc1ccccc1)C(=O)N[C@@H](CCSC)C(=O)O [3102.0124] (H-KVYINHPFM-OH) | 0.52 nM
CC[C@H](C)[C@H](N)C(=O)N[C@H](C(=O)N[C@@H](CCCNC(=N)N)C(=O)N[C@@H](CC(=O)O)C(=O)N[C@@H](CO)C(=O)N[C@@H](CCSC)C(=O)N[C@@H](Cc1c[nH]c2ccccc12)C(=O)N[C@@H](Cc1ccc(O)cc1)C(=O)N[C@H](C(=O)O)[C@@H](C)CC)C(C)C [3102.0125] (H-IVRDSMWYI-OH) | 20 nM
CC(C)C[C@H](NC(=O)[C@H](Cc1c[nH]cn1)NC(=O)[C@H](CC(N)=O)NC(=O)[C@H](CC(N)=O)NC(=O)[C@H](CCCNC(=N)N)NC(=O)[C@H](CO)NC(=O)[C@@H](N)[C@@H](C)O)C(=O)N1CCC[C@H]1C(=O)N[C@@H](C)C(=O)O [3102.0126] (H-TSRNNHLPA-OH) | 15 nM
CC[C@H](C)[C@H](NC(=O)[C@H](Cc1ccccc1)NC(=O)[C@@H]1CCCN1C(=O)[C@H](C)NC(=O)[C@H](CS)NC(=O)[C@H](Cc1c[nH]c2ccccc12)NC(=O)[C@H](CCCCN)NC(=O)[C@@H](NC(=O)[C@@H](N)CCSC)[C@@H](C)O)C(=O)O [3102.0130] (H-MTKWCAPFI-OH) | 0.17 nM
CC(C)C[C@H](NC(=O)[C@H](Cc1c[nH]cn1)NC(=O)[C@H](CC(N)=O)NC(=O)[C@H](CS)NC(=O)[C@H](CCCNC(=N)N)NC(=O)[C@H](C)NC(=O)[C@@H](N)CCCCN)C(=O)N[C@H](C(=O)N[C@@H](CCCCN)C(=O)O)[C@@H](C)O [3102.0131] (H-KARCNHLTK-OH) | 0.21 nM
CC[C@H](C)[C@H](NC(=O)[C@@H](NC(=O)[C@H](Cc1ccccc1)NC(=O)[C@H](CCSC)NC(=O)[C@@H](NC(=O)[C@@H](N)CCCCN)C(C)C)C(C)C)C(=O)N[C@@H](CCCNC(=N)N)C(=O)N[C@@H](Cc1ccccc1)C(=O)N[C@@H](CCCCN)C(=O)O [3102.0133] (H-KVMFVIRFK-OH) | 0.6 nM
CSCC[C@H](NC(=O)[C@H](Cc1c[nH]cn1)NC(=O)[C@H](CC(N)=O)NC(=O)[C@H](CCCNC(=N)N)NC(=O)[C@H](Cc1ccccc1)NC(=O)[C@@H](N)CCCNC(=N)N)C(=O)N[C@@H](CS)C(=O)N[C@@H](CC(C)C)C(=O)N[C@H](C(=O)O)C(C)C [3102.0134] (H-RFRNHMCLV-OH) | 31 nM
CC(C)[C@H](NC(=O)[C@@H](N)CO)C(=O)N[C@@H](CCCCN)C(=O)N[C@@H](CS)C(=O)N[C@@H](CCC(N)=O)C(=O)N[C@@H](CO)C(=O)N1CCC[C@H]1C(=O)N1CCC[C@H]1C(=O)N[C@@H](CO)C(=O)O [3102.0135] (H-SVKCQSPPS-OH) | 17 nM
CC[C@H](C)[C@H](NC(=O)[C@@H]1CCCN1C(=O)CNC(=O)[C@H](CCSC)NC(=O)[C@H](CCCCN)NC(=O)[C@H](CCC(N)=O)NC(=O)[C@@H](N)CCCCN)C(=O)N[C@@H](Cc1ccc(O)cc1)C(=O)N[C@@H](C)C(=O)O [3102.0136] (H-KQKMGPIYA-OH) | 22 nM
CC[C@H](C)[C@H](NC(=O)[C@H](CCCCN)NC(=O)[C@H](CC(N)=O)NC(=O)[C@H](CC(N)=O)NC(=O)[C@H](CCCCN)NC(=O)[C@@H](NC(=O)[C@@H](N)CCSC)C(C)C)C(=O)N[C@@H](CCC(N)=O)C(=O)N[C@@H](CCCCN)C(=O)O [3102.0137] (H-MVKNNKIQK-OH) | 12 nM
CC[C@H](C)[C@H](NC(=O)[C@H](Cc1ccccc1)NC(=O)[C@H](CCCCN)NC(=O)[C@H](Cc1ccc(O)cc1)NC(=O)[C@H](Cc1ccccc1)NC(=O)[C@H](C)NC(=O)[C@H](CCCCN)NC(=O)[C@@H](NC(=O)[C@@H](N)Cc1c[nH]cn1)C(C)C)C(=O)O [3102.0138] (H-HVKAFYKFI-OH) | 0.35 nM
CC[C@H](C)[C@H](NC(=O)[C@H](C)NC(=O)[C@H](CCCNC(=N)N)NC(=O)[C@@H](NC(=O)[C@@H](N)CCCNC(=N)N)[C@@H](C)O)C(=O)N[C@@H](CC(N)=O)C(=O)N[C@@H](CCCCN)C(=O)N[C@@H](Cc1ccc(O)cc1)C(=O)N[C@@H](CO)C(=O)O [3102.0141] (H-RTRAINKYS-OH) | 13 nM
CC(C)[C@H](NC(=O)[C@H](Cc1ccc(O)cc1)NC(=O)[C@H](CO)NC(=O)[C@H](Cc1ccc(O)cc1)NC(=O)[C@@H](NC(=O)[C@@H]1CCCN1C(=O)[C@H](CCCCN)NC(=O)[C@H](Cc1ccc(O)cc1)NC(=O)[C@@H](N)CCCCN)C(C)C)C(=O)O [3102.0143] (H-KYKPVYSYV-OH) | 0.74 nM
CC(C)[C@H](NC(=O)[C@H](CCCCN)NC(=O)[C@H](Cc1ccccc1)NC(=O)[C@@H](NC(=O)[C@H](CC(=O)O)NC(=O)[C@H](Cc1ccc(O)cc1)NC(=O)[C@H](CCCNC(=N)N)NC(=O)[C@@H](NC(=O)[C@@H](N)CCCNC(=N)N)[C@@H](C)O)[C@@H](C)O)C(=O)O [3102.0144] (H-RTRYDTFKV-OH) | 0.2 nM
CC(C)C[C@H](NC(=O)[C@H](Cc1ccccc1)NC(=O)[C@H](CO)NC(=O)[C@H](CCCCN)NC(=O)[C@H](CC(C)C)NC(=O)[C@H](CCC(N)=O)NC(=O)[C@H](CCCCN)NC(=O)[C@H](CO)NC(=O)[C@@H](N)CCCCN)C(=O)O [3102.0146] (H-KSKQLKSFL-OH) | 13 nM
CC[C@H](C)[C@H](NC(=O)[C@H](Cc1ccc(O)cc1)NC(=O)[C@H](CC(C)C)NC(=O)[C@@H]1CCCN1C(=O)[C@H](CC(=O)O)NC(=O)[C@H](CCCNC(=N)N)NC(=O)[C@@H](NC(=O)[C@@H](N)CCSC)[C@@H](C)O)C(=O)N[C@@H](Cc1ccc(O)cc1)C(=O)O [3102.0147] (H-MTRDPLYIY-OH) | 17 nM
C[C@H](N)C(=O)N[C@H](C(=O)N[C@@H](C)C(=O)N[C@@H](CCCNC(=N)N)C(=O)N[C@@H](CO)C(=O)N[C@@H](CO)C(=O)N1CCC[C@H]1C(=O)N[C@@H](CCC(=O)O)C(=O)N[C@@H](CCCCN)C(=O)O)[C@@H](C)O [3102.0148] (H-ATARSSPEK-OH) | 0.58 nM
CSCC[C@H](N)C(=O)N[C@H](C(=O)N[C@@H](CCCNC(=N)N)C(=O)N[C@@H](CC(C)C)C(=O)N1CCC[C@H]1C(=O)N[C@@H](Cc1ccc(O)cc1)C(=O)N[C@@H](CCCCN)C(=O)N[C@@H](CC(=O)O)C(=O)N[C@@H](C)C(=O)O)C(C)C [3102.0149] (H-MVRLPYKDA-OH) | 0.76 nM
CC[C@H](C)[C@H](NC(=O)[C@H](CC(N)=O)NC(=O)[C@@H](NC(=O)[C@H](CC(N)=O)NC(=O)[C@H](CCCCN)NC(=O)[C@H](CO)NC(=O)[C@@H](N)CCCCN)[C@@H](C)CC)C(=O)N[C@@H](CCC(=O)O)C(=O)N[C@H](C(=O)O)C(C)C [3102.0150] (H-KSKNINIEV-OH) | 0.32 nM
CC[C@H](C)[C@H](NC(=O)[C@H](CC(=O)O)NC(=O)[C@H](CC(C)C)NC(=O)[C@@H](NC(=O)[C@@H](N)CCCCN)[C@@H](C)O)C(=O)N[C@@H](CO)C(=O)N[C@@H](CO)C(=O)N[C@@H](Cc1ccccc1)C(=O)N[C@@H](Cc1ccc(O)cc1)C(=O)O [3102.0151] (H-KTLDISSFY-OH) | 23 nM
CC(C)[C@H](NC(=O)[C@H](CO)NC(=O)[C@@H](NC(=O)[C@H](Cc1ccc(O)cc1)NC(=O)[C@@H](NC(=O)[C@H](Cc1ccccc1)NC(=O)[C@H](CCCCN)NC(=O)[C@H](CO)NC(=O)[C@H](C)N)C(C)C)C(C)C)C(=O)O [3102.0152] (H-ASKFVYVSV-OH) | 3.1 nM
CC[C@H](C)[C@H](NC(=O)[C@H](CCCCN)NC(=O)[C@H](CO)NC(=O)[C@@H](NC(=O)[C@@H](NC(=O)[C@H](CCCCN)NC(=O)[C@H](CCCNC(=N)N)NC(=O)[C@@H](NC(=O)[C@@H](N)CCCCN)C(C)C)[C@@H](C)CC)[C@@H](C)CC)C(=O)O [3102.0153] (H-KVRKIISKI-OH) | 27 nM
CC(C)C[C@H](NC(=O)[C@H](Cc1ccc(O)cc1)NC(=O)[C@H](CCCNC(=N)N)NC(=O)[C@@H](NC(=O)[C@@H](N)CCCNC(=N)N)C(C)C)C(=O)N[C@H](C(=O)N[C@@H](CCCNC(=N)N)C(=O)N[C@@H](CC(N)=O)C(=O)N[C@@H](Cc1ccc(O)cc1)C(=O)O)[C@@H](C)O [3102.0155] (H-RVRYLTRNY-OH) | 5.6 nM
CC(C)C[C@H](NC(=O)[C@H](Cc1ccccc1)NC(=O)[C@@H](NC(=O)CNC(=O)[C@H](Cc1ccc(O)cc1)NC(=O)[C@H](CCCNC(=N)N)NC(=O)[C@H](Cc1ccc(O)cc1)NC(=O)[C@@H](N)CCCCN)[C@@H](C)O)C(=O)N[C@@H](Cc1ccc(O)cc1)C(=O)O [3102.0156] (H-KYRYGTFLY-OH) | 1.1 nM
